Measurements taken from patent US20100204119A1, “4-AMINO-5-OXO-7,8-DIHYDROPYRIMIDO[5,4-F][1,4]OXAZEPIN-6(5H)-YL PHENYL DERIVATIVES” (Pfizer Inc, priority 2009, published 2010).

Molecular target: T1, Human full-length diacylglycerol:acylCoA acyltransferase 1 (DGAT-1) (Homo sapiens, UniProt O75907)
T1 sequence (O75907 1-488): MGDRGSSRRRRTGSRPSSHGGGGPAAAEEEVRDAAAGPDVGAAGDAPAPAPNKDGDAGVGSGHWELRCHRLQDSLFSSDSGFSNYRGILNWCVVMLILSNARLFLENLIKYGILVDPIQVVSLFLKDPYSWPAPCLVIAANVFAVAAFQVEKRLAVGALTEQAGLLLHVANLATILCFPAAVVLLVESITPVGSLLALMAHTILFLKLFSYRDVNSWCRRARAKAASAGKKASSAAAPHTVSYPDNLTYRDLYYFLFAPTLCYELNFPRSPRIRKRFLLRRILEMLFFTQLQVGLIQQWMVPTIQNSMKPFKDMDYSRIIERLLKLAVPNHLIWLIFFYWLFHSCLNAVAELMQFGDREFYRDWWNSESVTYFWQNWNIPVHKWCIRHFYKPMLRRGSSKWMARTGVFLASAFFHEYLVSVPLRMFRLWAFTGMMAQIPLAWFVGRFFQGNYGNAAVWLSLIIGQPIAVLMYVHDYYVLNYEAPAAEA
Experiment: In vitro assay for inhibition of DGAT-1 activity (DGAT 1 Reduced Microsome Multidose Assay)
Conditions: Trial 1 Human IC50, Trial 1: as Trial 4 except microsomes at 25 μg/mL instead of 5 μg/mL; average where n > 1
Method: Human full-length diacylglycerol:acylCoA acyltransferase 1 (DGAT-1) was expressed in Sf9 insect cells which are then lysed and a crude membrane fraction (105,000×g pellet) was prepared.
Inhibitors in DMSO were pre-incubated with membranes before initiating the DGAT-1 reaction by the addition of decanoylCoA. […] The inhibitors were present at a range of eight concentrations to generate an apparent IC50 for each compound. […] Specifically, the eight concentrations used were 3 μM, 1 μM, 300 nM, 100 nM, 30 nM, 10 nM, 3 nM and 1 nM.
The reactions were allowed to proceed for 1.5 hours at room temperature and then terminated by the addition of 20 μl of EDTA (40 mM). Reaction mixture is then mixed by trituration with 30 μl of Microscint™-E (Perkin Elmer). […] Four separate trials were conducted. The method of analysis of Trial 1 was the same as Trial 4 (described above) except microsomes were utilized at 25 μg/mL instead of 5 μg/mL. The method of analysis of Trial 2 was the same as Trial 4 (described above) except eleven (11) concentrations of inhibitor were employed instead of eight (8). The method of analysis of Trial 3 was the same as Trial 2 except the compounds were serially diluted in a different laboratory.
Where this DGAT-1 inhibition assay was performed on a compound more than once, an average is provided for that compound.

Point of comparison: `N#CC1CCN(C(=O)C[C@H]2CC[C@H](c3ccc(N4CCOc5ncnc(N)c5C4=O)cc3)CC2)CC1` [Example 6G], IC50 50.1 nM. Against it:
- Nc1ncnc2c1C(=O)N(c1ccc([C@H]3CC[C@H](CC(=O)N4CCC(F)(F)CC4)CC3)cc1)CCO2 [Example 6L] — 2.1-fold higher, 105 nM
- Nc1ncnc2c1C(=O)N(c1ccc([C@H]3CC[C@H](CC(=O)N4CCCC(CO)C4)CC3)cc1)CCO2 (stereo partly drawn) [Example 6M] — within 1.5-fold, 45.7 nM
